Reference: US11434242B2, “Dopamine-b-hydroxylase inhibitors” (BIAL-PORTELA & Cª, S.A., priority 2017, dated 2022)

Biological target: T1, Dopamine beta hydroxylase (Homo sapiens, UniProt P09172)
T1 construct: 125 μl of plasma; tissue Instituto Português do Sangue Transplantação; host or cells: human plasma from healthy donors
T1 sequence (P09172 40-617 limits assumed): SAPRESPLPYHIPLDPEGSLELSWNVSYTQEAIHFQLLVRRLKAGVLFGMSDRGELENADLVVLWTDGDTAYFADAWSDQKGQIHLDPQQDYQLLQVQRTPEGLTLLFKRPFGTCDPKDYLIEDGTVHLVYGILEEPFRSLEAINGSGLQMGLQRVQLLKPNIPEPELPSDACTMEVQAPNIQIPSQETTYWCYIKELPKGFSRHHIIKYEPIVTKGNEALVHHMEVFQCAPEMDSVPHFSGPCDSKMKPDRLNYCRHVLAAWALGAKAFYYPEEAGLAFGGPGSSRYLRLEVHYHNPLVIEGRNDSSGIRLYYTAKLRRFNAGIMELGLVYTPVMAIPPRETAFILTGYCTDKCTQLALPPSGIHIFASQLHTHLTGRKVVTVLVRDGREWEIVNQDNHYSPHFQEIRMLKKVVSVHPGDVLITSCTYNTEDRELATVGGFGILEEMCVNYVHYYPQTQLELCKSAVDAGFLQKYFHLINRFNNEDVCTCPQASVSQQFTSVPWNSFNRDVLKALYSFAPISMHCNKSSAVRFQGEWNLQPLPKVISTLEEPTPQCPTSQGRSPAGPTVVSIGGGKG
Assay: Dopamine beta hydroxylase activity in human plasma
Format: biochemical
Details: for Plasma (0.1 μM), activity in % of control: inhibitor 0.1 μM; for Plasma (1 μM), activity in % of control: inhibitor 1 μM; for Plasma (0.01 μM), activity in % of control: inhibitor 0.01 μM
Outline: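 Octopamine production from tyramine over 45 min at 37° C, measured photometrically at 330 nm after SCX extraction and periodate oxidation against an octopamine standard curve, indicates plasma DβH activity. Compounds tested at final 10, 100 and 1000 nM in human plasma, pH 5.0 cofactor buffer, 10 min preincubation; results as % of control.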

| SMILES | Plasma (0.1 μM), activity in % of control | Plasma (1 μM), activity in % of control | Plasma (0.01 μM), activity in % of control |
| --- | --- | --- | --- |
| CC(C)NCCc1[nH]c(=S)n2c1[C@@H]1C[C@]1(c1cc(Cl)ccc1F)C2.Cl [Example 175, (5aS,6aR)-5a-(5-chloro-2-fluorophenyl)-1-(2-(isopropylamino)ethyl)-5,5a,6,6a-tetrahydrocyclopropa[3,4]pyrrolo[1,2-c]imidazole-3(2H)-thione hydrochloride] | 61.7 % of control | 13.8 % of control |  |
| CN(C(=O)Cc1[nH]c(=S)n2c1C[C@H](c1c(F)ccc(F)c1F)C2)C1CCOCC1 [Example 379, (R)—N-methyl-2-(6-(2,3,6-trifluorophenyl)-3-thioxo-2,5,6,7-tetrahydro-3H-pyrrolo[1,2-c]imidazol-1-yl)-N-(tetrahydro-2H-pyran-4-yl)acetamide] | 50.1 % of control |  | 108.7 % of control |
| O=C(Cc1[nH]c(=S)n2c1C[C@H](c1cc(Cl)ccc1F)C2)N[C@@H]1CCOC1 [Example 75, 2-((R)-6-(5-chloro-2-fluorophenyl)-3-thioxo-2,5,6,7-tetrahydro-3H-pyrrolo[1,2-c]imidazol-1-yl)-N—((R)-tetrahydrofuran-3-yl)acetamide] | 91.0 % of control | 56.3 % of control |  |
| Cn1c(CC(=O)N[C@@H]2CCOC2)c2n(c1=S)C[C@H](c1cc(Cl)ccc1F)C2 [Example 251, 2-((S)-6-(5-chloro-2-fluorophenyl)-2-methyl-3-thioxo-2,5,6,7-tetrahydro-3H-pyrrolo[1,2-c]imidazol-1-yl)-N—((R)-tetrahydrofuran-3-yl)acetamide] | 36.0 % of control |  | 80.0 % of control |
| CN1CCN(C(=O)Cc2c3n(c(=S)n2C)C[C@@H](c2c(F)c(F)cc(F)c2F)C3)CC1=O [Example 324, (R)-1-methyl-4-(2-(2-methyl-6-(2,3,5,6-tetrafluorophenyl)-3-thioxo-2,5,6,7-tetrahydro-3H-pyrrolo[1,2-c]imidazol-1-yl)acetyl)piperazin-2-one] | 53.1 % of control |  | 88.6 % of control |
| Cn1c(CC(=O)N2CCOCC2)c2n(c1=S)C[C@@H](c1c(F)ccc(F)c1F)C2 [Example 237, (R)-2-(2-methyl-3-thioxo-6-(2,3,6-trifluorophenyl)-2,5,6,7-tetrahydro-3H-pyrrolo[1,2-c]imidazol-1-yl)-1-morpholinoethan-1-one] | 61.6 % of control |  | 92.9 % of control |
| O=C(Cc1[nH]c(=S)n2c1[C@@H]1C[C@]1(c1c(F)ccc(Cl)c1F)C2)NCc1cccnc1 [Example 151, 2-((5aS,6aR)-5a-(3-chloro-2,6-difluorophenyl)-3-thioxo-2,3,5,5a,6,6a-hexahydrocyclopropa[3,4]pyrrolo[1,2-c]imidazol-1-yl)-N-(pyridin-3-ylmethyl)acetamide] | 20.2 % of control |  | 73.7 % of control |
| Cn1c(CC(=O)N[C@H]2CCOC2)c2n(c1=S)C[C@@]1(c3cc(Cl)ccc3F)C[C@@H]21 [Example 306, 2-((5aS,6aR)-5a-(5-chloro-2-fluorophenyl)-2-methyl-3-thioxo-2,3,5,5a,6,6a-hexahydrocyclopropa[3,4]pyrrolo[1,2-c]imidazol-1-yl)-N—((S)-tetrahydrofuran-3-yl)acetamide] | 18.0 % of control |  | 70.6 % of control |
| CN(C(=O)Cc1[nH]c(=S)n2c1C[C@@H](c1c(F)ccc(Cl)c1F)C2)C1CCOCC1 [Example 380, (S)-2-(6-(3-chloro-2,6-difluorophenyl)-3-thioxo-2,5,6,7-tetrahydro-3H-pyrrolo[1,2-c]imidazol-1-yl)-N-methyl-N-(tetrahydro-2H-pyran-4-yl)acetamide] | 27.4 % of control |  | 74.9 % of control |
| CN(C(=O)Cc1[nH]c(=S)n2c1C[C@@H](c1c(F)ccc(Cl)c1F)C2)C1CCS(=O)(=O)CC1 [Example 163, (S)-2-(6-(3-chloro-2,6-difluorophenyl)-3-thioxo-2,5,6,7-tetrahydro-3H-pyrrolo[1,2-c]imidazol-1-yl)-N-(1,1-dioxidotetrahydro-2H-thiopyran-4-yl)-N-methylacetamide] | 2.4 % of control |  | 14.8 % of control |
| Cn1c(CCC(=O)N[C@@H]2CCOC2)c2n(c1=S)C[C@@H](c1c(F)ccc(F)c1F)C2 [Example 265, 3-((R)-2-methyl-3-thioxo-6-(2,3,6-trifluorophenyl)-2,5,6,7-tetrahydro-3H-pyrrolo[1,2-c]imidazol-1-yl)-N—((R)-tetrahydrofuran-3-yl)propanamide] | 70.6 % of control |  | 94.9 % of control |
| Cn1c(CCC(=O)N2CCC[C@H]2CO)c2n(c1=S)C[C@@H](c1c(F)ccc(F)c1F)C2 [Example 267, 1-((S)-2-(hydroxymethyl)pyrrolidin-1-yl)-3-((R)-2-methyl-3-thioxo-6-(2,3,6-trifluorophenyl)-2,5,6,7-tetrahydro-3H-pyrrolo[1,2-c]imidazol-1-yl)propan-1-one] | 55.8 % of control |  | 90.8 % of control |
| O=C(Cc1[nH]c(=S)n2c1[C@@H]1C[C@]1(c1cc(Br)ccc1F)C2)NC1CCC1 [Example 153, 2-((5aS,6aR)-5a-(5-bromo-2-fluorophenyl)-3-thioxo-2,3,5,5a,6,6a-hexahydrocyclopropa[3,4]pyrrolo[1,2-c]imidazol-1-yl)-N-cyclobutylacetamide] | 28.4 % of control |  | 85.5 % of control |
| Cn1c(CC(=O)N[C@@H]2CCOC2)c2n(c1=S)C[C@@H](c1cc(Cl)ccc1F)C2 [Example 246, 2-((R)-6-(5-chloro-2-fluorophenyl)-2-methyl-3-thioxo-2,5,6,7-tetrahydro-3H-pyrrolo[1,2-c]imidazol-1-yl)-N—((R)-tetrahydrofuran-3-yl)acetamide] | 80.3 % of control |  | 115.2 % of control |
| CN(C(=O)Cc1c2n(c(=S)n1C)C[C@@H](c1c(F)ccc(F)c1F)C2)C1CCOC1 (stereo partly drawn) [Example 374, N-methyl-2-((R)-2-methyl-3-thioxo-6-(2,3,6-trifluorophenyl)-2,5,6,7-tetrahydro-3H-pyrrolo[1,2-c]imidazol-1-yl)-N-(tetrahydrofuran-3-yl)acetamide] | 50.0 % of control |  | 97.4 % of control |
